{"source": "paper PMC5218480", "about": "(PLoS ONE, 2017)", "tested_on": "MV-4-11 cells", "assay": "Gene expression microarray analysis (Affymetrix PrimeView) and GSEA", "type": "cell-based, human", "set-up": "RFU PODN (11730768_x_at) / Fold change /veh PODN (11730768_x_at) / RFU LINC00158 (11744669_a_at) / Fold change /veh LINC00158 (11744669_a_at) / RFU DUSP10 (11751237_a_at) / Fold change /veh DUSP10 (11751237_a_at) / RFU ID3 (11757404_x_at) / Fold change /veh ID3 (11757404_x_at) / RFU PLEKHG5 (11737974_s_at) / Fold change /veh PLEKHG5 (11737974_s_at) / RFU LRRC4B (11730491_at) / Fold change /veh LRRC4B (11730491_at) / RFU GIMAP4 (11747438_a_at) / Fold change /veh GIMAP4 (11747438_a_at) / RFU KRT8 (11758183_x_at) / Fold change /veh KRT8 (11758183_x_at) / RFU CNN1 (11734310_a_at) / Fold change /veh CNN1 (11734310_a_at) / RFU VPS37D (11726825_at) / Fold change /veh VPS37D (11726825_at) / RFU C10orf10 (11716522_x_at) / Fold change /veh C10orf10 (11716522_x_at) / RFU KIR2DL2 /// KIR2DL4 /// KIR2DL5A /// KIR2DL5B /// KIR2DS1 /// KIR2DS2 /// KIR2DS3 /// KIR2DS4 /// KIR3DL3 /// KIR3DL3 /// KIR3DS1 (11738374_at) / Fold change /veh KIR2DL2 /// KIR2DL4 /// KIR2DL5A /// KIR2DL5B /// KIR2DS1 /// KIR2DS2 /// KIR2DS3 /// KIR2DS4 /// KIR3DL3 /// KIR3DL3 /// KIR3DS1 (11738374_at) / RFU C1QL1 (11718748_at) / Fold change /veh C1QL1 (11718748_at) / RFU TMPRSS4 (11747572_a_at) / Fold change /veh TMPRSS4 (11747572_a_at) / RFU HAMP (11756126_x_at) / Fold change /veh HAMP (11756126_x_at) / RFU RNFT2 (11725882_a_at) / Fold change /veh RNFT2 (11725882_a_at) / RFU NR4A2 (11747474_a_at) / Fold change /veh NR4A2 (11747474_a_at) / RFU ABCC12 (11746883_a_at) / Fold change /veh ABCC12 (11746883_a_at) / RFU TMEM136 (11760407_x_at) / Fold change /veh TMEM136 (11760407_x_at) / RFU CLDN22 /// WWC2 (11732394_at) / Fold change /veh CLDN22 /// WWC2 (11732394_at) / RFU HLA-DPB1 (11760878_x_at) / Fold change /veh HLA-DPB1 (11760878_x_at) / RFU SPINT1 (11716480_a_at) / Fold change /veh SPINT1 (11716480_a_at) / RFU GAP43 (11754022_s_at) / Fold change /veh GAP43 (11754022_s_at) / RFU A4GNT (11735810_at) / Fold change /veh A4GNT (11735810_at) / RFU PRB3 (11715151_x_at) / Fold change /veh PRB3 (11715151_x_at) / RFU TUBB4B (11761932_at) / Fold change /veh TUBB4B (11761932_at) / RFU CAPN14 (11732068_a_at) / Fold change /veh CAPN14 (11732068_a_at) / RFU TMCC2 (11721928_a_at) / Fold change /veh TMCC2 (11721928_a_at) / RFU IRGQ (11745062_a_at) / Fold change /veh IRGQ (11745062_a_at) / RFU FAM174B (11720279_a_at) / Fold change /veh FAM174B (11720279_a_at) / RFU TMPRSS4 (11748680_a_at) / Fold change /veh TMPRSS4 (11748680_a_at) / RFU FAM212B (11763350_a_at) / Fold change /veh FAM212B (11763350_a_at) / RFU PLEKHG5 (11743358_a_at) / Fold change /veh PLEKHG5 (11743358_a_at) / RFU ZSCAN30 (11745921_a_at) / Fold change /veh ZSCAN30 (11745921_a_at) / RFU CMKLR1 (11741424_a_at) / Fold change /veh CMKLR1 (11741424_a_at) / RFU LOC101060620 /// MAPK8IP1 (11723275_at) / Fold change /veh LOC101060620 /// MAPK8IP1 (11723275_at) / RFU SPTSSB (11747773_x_at) / Fold change /veh SPTSSB (11747773_x_at) / RFU PRSS12 (11739890_at) / Fold change /veh PRSS12 (11739890_at) / RFU BIN1 (11741810_x_at) / Fold change /veh BIN1 (11741810_x_at) / RFU WNT11 (11732464_a_at) / Fold change /veh WNT11 (11732464_a_at) / RFU C10orf10 (11716521_a_at) / Fold change /veh C10orf10 (11716521_a_at) / RFU C5orf56 (11738089_at) / Fold change /veh C5orf56 (11738089_at) / RFU CYB561 (11721691_x_at) / Fold change /veh CYB561 (11721691_x_at) / RFU ANKRD19P (11752326_a_at) / Fold change /veh ANKRD19P (11752326_a_at) / RFU OR2T12 /// OR2T33 /// OR2T8 (11738714_s_at) / Fold change /veh OR2T12 /// OR2T33 /// OR2T8 (11738714_s_at) / RFU VCAN (11748164_a_at) / Fold change /veh VCAN (11748164_a_at) / RFU JSRP1 (11732532_at) / Fold change /veh JSRP1 (11732532_at) / RFU KRTAP10-11 (11738290_x_at) / Fold change /veh KRTAP10-11 (11738290_x_at) / RFU MYO3A (11730013_a_at) / Fold change /veh MYO3A (11730013_a_at) / RFU EBF3 (11725865_a_at) / Fold change /veh EBF3 (11725865_a_at) / RFU CAMK2N1 (11719241_x_at) / Fold change /veh CAMK2N1 (11719241_x_at) / RFU C5orf56 (11738088_a_at) / Fold change /veh C5orf56 (11738088_a_at) / RFU OLFML3 (11715873_a_at) / Fold change /veh OLFML3 (11715873_a_at) / RFU LOC100653217 /// NTM (11731650_a_at) / Fold change /veh LOC100653217 /// NTM (11731650_a_at) / RFU MAPK11 (11762145_a_at) / Fold change /veh MAPK11 (11762145_a_at) / RFU FIZ1 (11724087_x_at) / Fold change /veh FIZ1 (11724087_x_at) / RFU OASL (11726364_x_at) / Fold change /veh OASL (11726364_x_at) / RFU SOX15 (11748057_x_at) / Fold change /veh SOX15 (11748057_x_at) / RFU CD79A (11719716_a_at) / Fold change /veh CD79A (11719716_a_at) / RFU HIST1H1D (11736915_at) / Fold change /veh HIST1H1D (11736915_at) / RFU CASKIN2 (11723855_a_at) / Fold change /veh CASKIN2 (11723855_a_at) / RFU LOC730098 (11760151_x_at) / Fold change /veh LOC730098 (11760151_x_at) / RFU OR4N2 (11742367_at) / Fold change /veh OR4N2 (11742367_at) / RFU PRRT2 (11749266_a_at) / Fold change /veh PRRT2 (11749266_a_at) / RFU SNX32 (11753110_a_at) / Fold change /veh SNX32 (11753110_a_at) / RFU CDHR5 (11726645_a_at) / Fold change /veh CDHR5 (11726645_a_at) / RFU RCAN1 (11760418_a_at) / Fold change /veh RCAN1 (11760418_a_at) / RFU FAM167A (11723789_a_at) / Fold change /veh FAM167A (11723789_a_at) / RFU FAM26E (11764081_at) / Fold change /veh FAM26E (11764081_at) / RFU ISYNA1 (11749810_s_at) / Fold change /veh ISYNA1 (11749810_s_at) / RFU ACY1 (11761880_at) / Fold change /veh ACY1 (11761880_at) / RFU 11764098_at / Fold change /veh 11764098_at / RFU SAMD14 (11745864_x_at) / Fold change /veh SAMD14 (11745864_x_at) / RFU NPB (11741838_a_at) / Fold change /veh NPB (11741838_a_at) / RFU TMPRSS6 (11731388_a_at) / Fold change /veh TMPRSS6 (11731388_a_at) / RFU KRTAP10-2 (11738614_at) / Fold change /veh KRTAP10-2 (11738614_at) / RFU ARHGAP8 /// PRR5-ARHGAP8 (11727945_x_at) / Fold change /veh ARHGAP8 /// PRR5-ARHGAP8 (11727945_x_at) / RFU KRTAP5-7 /// NADSYN1 (11734609_at) / Fold change /veh KRTAP5-7 /// NADSYN1 (11734609_at) / RFU RASL12 (11751679_a_at) / Fold change /veh RASL12 (11751679_a_at) / RFU CDKN2B (11736163_a_at) / Fold change /veh CDKN2B (11736163_a_at) / RFU PRF1 (11729649_at) / Fold change /veh PRF1 (11729649_at) / RFU, ZNF638 /// ZNF638-IT1 / Fold change vs veh, ZNF638 /// ZNF638-IT1 / RFU, PANK3 / Fold change vs veh, PANK3 / RFU, SH3YL1 / Fold change vs veh, SH3YL1 / RFU, ZEB2 / Fold change vs veh, ZEB2 / RFU, NRIP1 / Fold change vs veh, NRIP1 / RFU, PTTG1IP / Fold change vs veh, PTTG1IP / RFU, CAPN2 / Fold change vs veh, CAPN2 / RFU, MED14 / Fold change vs veh, MED14 / RFU, SNORA58 / Fold change vs veh, SNORA58 / RFU, C1orf63 / Fold change vs veh, C1orf63 / RFU, LRRFIP1 / Fold change vs veh, LRRFIP1 / RFU, NDUFAF7 / Fold change vs veh, NDUFAF7 / RFU, SLC12A2 / Fold change vs veh, SLC12A2 / RFU, IBTK / Fold change vs veh, IBTK / RFU, ESF1 / Fold change vs veh, ESF1 / Fold change vs veh, TMEM50B / RFU, TAOK1 / Fold change vs veh, TAOK1 / RFU, ACBD3 / Fold change vs veh, ACBD3 / RFU, TMA16 / Fold change vs veh, TMA16 / RFU, RWDD3 / Fold change vs veh, RWDD3 / RFU, BCAT1 / Fold change vs veh, BCAT1 / RFU, EDEM3 / Fold change vs veh, EDEM3 / RFU, TMEM33 / Fold change vs veh, TMEM33 / RFU, WDR75 / Fold change vs veh, WDR75 / RFU, AHCTF1 / Fold change vs veh, AHCTF1 / RFU, TFRC / Fold change vs veh, TFRC / RFU, ZDHHC17 / Fold change vs veh, ZDHHC17 / RFU, NOM1 / Fold change vs veh, NOM1 / RFU, ARL8B / Fold change vs veh, ARL8B / RFU, ZBTB11 / Fold change vs veh, ZBTB11 / RFU, TAMM41 / Fold change vs veh, TAMM41 / RFU, KIAA1704 /// LOC100996395 / Fold change vs veh, KIAA1704 /// LOC100996395 / RFU, ING1 / Fold change vs veh, ING1 / RFU, TRMT61B / Fold change vs veh, TRMT61B / RFU, FUBP3 / Fold change vs veh, FUBP3 / RFU, TP53 / Fold change vs veh, TP53 / RFU, TNKS2 / Fold change vs veh, TNKS2 / RFU, ZFP14 / Fold change vs veh, ZFP14 / RFU, ACTR2 / Fold change vs veh, ACTR2 / RFU, PPP3R1 / Fold change vs veh, PPP3R1 / RFU, PIK3R1 / Fold change vs veh, PIK3R1 / RFU, HNRNPA1 / Fold change vs veh, HNRNPA1 / RFU, RNF170 / Fold change vs veh, RNF170 / RFU, ZNF28 / Fold change vs veh, ZNF28 / RFU, RNGTT / Fold change vs veh, RNGTT / RFU, OGT / Fold change vs veh, OGT / RFU, BRD1 / Fold change vs veh, BRD1 / RFU, MARS / Fold change vs veh, MARS / RFU, ZNF655 / Fold change vs veh, ZNF655 / RFU, FAHD1 / Fold change vs veh, FAHD1 / RFU, BDP1 / Fold change vs veh, BDP1 / RFU, LRRCC1 / Fold change vs veh, LRRCC1 / RFU, ARID1A / Fold change vs veh, ARID1A / RFU, ZNF146 / Fold change vs veh, ZNF146 / RFU, ZNF330 / Fold change vs veh, ZNF330 / RFU, GPN3 / Fold change vs veh, GPN3 / RFU, C9orf123 / Fold change vs veh, C9orf123 / RFU, N4BP2L2 / Fold change vs veh, N4BP2L2 / RFU, ARFIP1 / Fold change vs veh, ARFIP1 / RFU, FAM179B / Fold change vs veh, FAM179B / RFU, BCL10 / Fold change vs veh, BCL10 / RFU, UHRF1BP1L / Fold change vs veh, UHRF1BP1L / RFU, BET1 / Fold change vs veh, BET1 / RFU, CNOT2 / Fold change vs veh, CNOT2 / RFU, ZNF268 / Fold change vs veh, ZNF268 / Fold change vs veh, ZNF507 / RFU, DGCR2 / Fold change vs veh, DGCR2 / RFU, WDSUB1 / Fold change vs veh, WDSUB1 / Fold change vs veh, HSP90B1 /// MIR3652 / RFU, ADSS / Fold change vs veh, ADSS / RFU, GK / Fold change vs veh, GK / RFU, ZNF148 / Fold change vs veh, ZNF148 / RFU, TAF9 / Fold change vs veh, TAF9 / RFU, SLC1A5 / Fold change vs veh, SLC1A5 / RFU, SLMO2 / Fold change vs veh, SLMO2 / RFU, ABCC4 / Fold change vs veh, ABCC4 / RFU, LOC101060439 /// RAP1B / Fold change vs veh, LOC101060439 /// RAP1B / RFU, RFX7 / Fold change vs veh, RFX7 / RFU, GTPBP10 / Fold change vs veh, GTPBP10 / RFU, CNEP1R1 / Fold change vs veh, CNEP1R1 / RFU, BIVM-ERCC5 /// ERCC5 / Fold change vs veh, BIVM-ERCC5 /// ERCC5 / RFU, ILF3 / Fold change vs veh, ILF3 / RFU 11762660_at / Fold change /veh 11762660_at / RFU VCAN (11757783_s_at) / Fold change /veh VCAN (11757783_s_at) / RFU DDX43 (11728927_at) / Fold change /veh DDX43 (11728927_at) / RFU KRT8 (11758188_x_at) / Fold change /veh KRT8 (11758188_x_at) / RFU NKD1 (11759106_at) / Fold change /veh NKD1 (11759106_at) / RFU SRD5A1 (11742802_a_at) / Fold change /veh SRD5A1 (11742802_a_at) / RFU TPSAB1 /// TPSB2 (11721975_s_at) / Fold change /veh TPSAB1 /// TPSB2 (11721975_s_at) / RFU GSTM3 (11746129_a_at) / Fold change /veh GSTM3 (11746129_a_at) / RFU IL23R (11737362_x_at) / Fold change /veh IL23R (11737362_x_at) / RFU TMEM51 (11727254_a_at) / Fold change /veh TMEM51 (11727254_a_at) / RFU PIWIL2 (11732686_x_at) / Fold change /veh PIWIL2 (11732686_x_at) / RFU ORM1 (11744905_x_at) / Fold change /veh ORM1 (11744905_x_at) / RFU CCDC152 (11743942_at) / Fold change /veh CCDC152 (11743942_at) / RFU ECM1 (11717891_a_at) / Fold change /veh ECM1 (11717891_a_at) / RFU IL23R (11748794_a_at) / Fold change /veh IL23R (11748794_a_at) / RFU TNFAIP8L3 (11732012_x_at) / Fold change /veh TNFAIP8L3 (11732012_x_at) / RFU MBOAT4 (11741988_at) / Fold change /veh MBOAT4 (11741988_at) / RFU 11764193_at / Fold change /veh 11764193_at / RFU TMEM53 (11763286_at) / Fold change /veh TMEM53 (11763286_at) / RFU MAGEB2 (11727129_at) / Fold change /veh MAGEB2 (11727129_at) / RFU TMEM200A (11744735_a_at) / Fold change /veh TMEM200A (11744735_a_at) / RFU CCDC152 (11751479_a_at) / Fold change /veh CCDC152 (11751479_a_at) / RFU FAM211A (11726209_a_at) / Fold change /veh FAM211A (11726209_a_at) / RFU RGS16 (11746705_a_at) / Fold change /veh RGS16 (11746705_a_at) / RFU VCAN (11755009_s_at) / Fold change /veh VCAN (11755009_s_at) / RFU RHOB (11743442_s_at) / Fold change /veh RHOB (11743442_s_at) / RFU RGS16 (11720943_a_at) / Fold change /veh RGS16 (11720943_a_at) / RFU RGS16 (11720944_at) / Fold change /veh RGS16 (11720944_at) / RFU, VPS4B / Fold change vs veh, VPS4B / RFU, CREB1 / Fold change vs veh, CREB1 / RFU, DNAJC13 / Fold change vs veh, DNAJC13 / RFU, GNAQ / Fold change vs veh, GNAQ / RFU, CDK5R1 / Fold change vs veh, CDK5R1 / RFU, ZRANB3 / Fold change vs veh, ZRANB3 / RFU, CUL4A / Fold change vs veh, CUL4A / RFU, CCNY / Fold change vs veh, CCNY / RFU, UFL1 / Fold change vs veh, UFL1 / RFU, COG3 / Fold change vs veh, COG3 / RFU, DIAPH2 / Fold change vs veh, DIAPH2 / RFU, SKA2 / Fold change vs veh, SKA2 / RFU, AFF3 / Fold change vs veh, AFF3 / RFU, LMF1 / Fold change vs veh, LMF1 / RFU, IPO11 / Fold change vs veh, IPO11 / RFU, DFFB / Fold change vs veh, DFFB / RFU, FOXP1 / Fold change vs veh, FOXP1 / RFU, CARD8 / Fold change vs veh, CARD8 / RFU, STRN3 / Fold change vs veh, STRN3 / RFU, ADK / Fold change vs veh, ADK / RFU, RASSF2 / Fold change vs veh, RASSF2 / RFU, WIPF1 / Fold change vs veh, WIPF1 / RFU, LARP1B / Fold change vs veh, LARP1B / RFU, RASA1 / Fold change vs veh, RASA1 / RFU, RB1 / Fold change vs veh, RB1 / RFU, PPFIA1 / Fold change vs veh, PPFIA1 / RFU, MAT2A / Fold change vs veh, MAT2A / RFU, CCT5 / Fold change vs veh, CCT5 / RFU, WDR92 / Fold change vs veh, WDR92 / RFU, CUX1 / Fold change vs veh, CUX1 / RFU, TTC7A / Fold change vs veh, TTC7A / RFU, TMEM135 / Fold change vs veh, TMEM135 / RFU, DEPTOR / Fold change vs veh, DEPTOR / RFU, CPM / Fold change vs veh, CPM / RFU, DNAJB6 / Fold change vs veh, DNAJB6 / RFU, CACNA2D3 / Fold change vs veh, CACNA2D3 / RFU, DTX4 / Fold change vs veh, DTX4 / RFU, TFCP2 / Fold change vs veh, TFCP2 / RFU, GMCL1 /// GMCL1P1 / Fold change vs veh, GMCL1 /// GMCL1P1 / RFU, AEBP2 / Fold change vs veh, AEBP2 / RFU, SNHG1 /// SNORD22 /// SNORD25 /// SNORD26 /// SNORD27 /// SNORD28 /// SNORD29 /// SNORD31 / Fold change vs veh, SNHG1 /// SNORD22 /// SNORD25 /// SNORD26 /// SNORD27 /// SNORD28 /// SNORD29 /// SNORD31 / Fold change (Aza/veh), C12orf56 (ProbeSet 11735607_a_at) / Fold change (ACY-1035/veh), C12orf56 (ProbeSet 11735607_a_at) / Fold change (Aza/veh), FGFR1OP (ProbeSet 11751329_s_at) / Fold change (ACY-1035/veh), FGFR1OP (ProbeSet 11751329_s_at) / Fold change (Aza/veh), VPS36 (ProbeSet 11739960_a_at) / Fold change (ACY-1035/veh), VPS36 (ProbeSet 11739960_a_at) / RFU SYPL1 (11715823_x_at) / Fold change /veh SYPL1 (11715823_x_at) / RFU IGFBP7 (11715501_s_at) / Fold change /veh IGFBP7 (11715501_s_at) / RFU REEP3 (11722064_at) / Fold change /veh REEP3 (11722064_at) / RFU IGLL1 (11728026_x_at) / Fold change /veh IGLL1 (11728026_x_at): dose or concentration left out as unconfirmed", "conditions": "MV-4-11 cells, 48 hours", "data": [{"compound": "Nc1ncn([C@@H]2O[C@H](CO)[C@@H](O)[C@H]2O)c(=O)n1", "note": "[azacitidine]", "values": [{"measurement": "Fold change /veh A4GNT (11735810_at)", "result": 0.90}]}]}
